Test results published in article PMC2778250 (Journal of medicinal chemistry, 2009).

How the values were obtained:
LcrF = LcrF (Yersinia pestis, UniProt P28808); assay: biochemical; format: binding; conditions: for IC50: LcrF IC50
SlyA = target: T1, SlyA (Salmonella typhimurium, UniProt P40676); assay: biochemical; format: binding, Salmonella spp.
T1 sequence (P40676 1-144): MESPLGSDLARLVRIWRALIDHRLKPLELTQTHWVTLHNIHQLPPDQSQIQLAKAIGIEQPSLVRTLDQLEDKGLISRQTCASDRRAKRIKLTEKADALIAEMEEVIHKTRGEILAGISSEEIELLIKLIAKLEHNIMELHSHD

Y. pseudotuberculosis = format: cell-based
S. aureus = assay: In vitro antimicrobial susceptibility test; format: cell-based
E. coli = assay: In vitro antimicrobial susceptibility test; format: cell-based
[1] = system: pET-15b supercoiled plasmid DNA; assay: In vitro DNA binding assay; conditions: 100 μg/mL; agarose gel electrophoresis
[2] = system: uninfected J774A.1 murine macrophages; conditions: 50μg/mL
[3] = system: T3SS-dependent Y. pseudotuberculosis killing of macrophages

LcrF, sequence (P28808 whole entry, looked up): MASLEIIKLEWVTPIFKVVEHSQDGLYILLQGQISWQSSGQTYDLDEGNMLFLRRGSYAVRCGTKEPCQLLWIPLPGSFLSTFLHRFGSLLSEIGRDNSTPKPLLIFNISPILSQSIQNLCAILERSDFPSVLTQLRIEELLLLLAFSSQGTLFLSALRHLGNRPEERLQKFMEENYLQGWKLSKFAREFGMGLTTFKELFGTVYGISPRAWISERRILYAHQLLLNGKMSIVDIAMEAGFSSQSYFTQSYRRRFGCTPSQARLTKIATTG

O=C(NCc1ccc(-c2nc3ccc([N+](=O)[O-])cc3n2O)cc1)c1ccc(F)cc1 [Compound 11, 4-Fluoro-N-[4-(1-hydroxy-6-nitro-1H-benzoimidazol-2-yl)-benzyl]-benzamide]
inhibitory activity in LcrF-DNA binding assay (in words) (LcrF): no measurable activity

O=C(Cc1ccc(F)cc1)Nc1ccc(-c2nc3ccc([N+](=O)[O-])cc3n2O)cc1 [Compound 12, 2-(4-Fluoro-phenyl)-N-[4-(1-hydroxy-6-nitro-1H-benzoimidazol-2-yl)-phenyl]-acetamide]
inhibitory activity in LcrF-DNA binding assay (in words) (LcrF): no measurable activity

O=C(CCc1ccc(F)cc1)Nc1ccc(-c2nc3ccc([N+](=O)[O-])cc3n2O)cc1 [Compound 13, 3-(4-Fluoro-phenyl)-N-[4-(1-hydroxy-6-nitro-1H-benzoimidazol-2-yl)-phenyl]-propionamide]
inhibitory activity in LcrF-DNA binding assay (in words) (LcrF): no measurable activity

O=C(/C=C/c1ccc(F)cc1)Nc1ccc(-c2nc3ccc([N+](=O)[O-])cc3n2O)cc1 [Compound 14, (E)-3-(4-Fluoro-phenyl)-N-[4-(1-hydroxy-6-nitro-1H-benzoimidazol-2-yl)-phenyl]-acrylamide]
IC50 (LcrF): ≤ 10 µM
IC50 (SlyA): > 53.8 µM
antibacterial activity (in words) (Y. pseudotuberculosis): no measurable antibacterial activity
antibacterial activity (in words) (S. aureus): no measurable antibacterial activity
antibacterial activity (in words) (E. coli): no measurable antibacterial activity
non-specific DNA binding (effect on plasmid migration) [1]: non-DNA binding
intrinsic toxicity to uninfected macrophages [2]: non-cytotoxic

N#Cc1ccc(/C=C/C(=O)Nc2ccc(-c3nc4ccc([N+](=O)[O-])cc4n3O)cc2)cc1 [Compound 19]
inhibition of Y. pseudotuberculosis cytotoxicity in whole cell assay (in words) [3]: strongly inhibited cytotoxicity

Cc1ccc(/C=C/C(=O)Nc2ccc(-c3nc4ccc([N+](=O)[O-])cc4n3O)cc2)cc1 [Compound 20, (E)-N-[4-(1-Hydroxy-6-nitro-1H-benzoimidazol-2-yl)-phenyl]-3-p-tolyl-acrylamide]
inhibition of Y. pseudotuberculosis cytotoxicity in whole cell assay (in words) [3]: relatively inactive

COc1ccc(/C=C/C(=O)Nc2ccc(-c3nc4ccc([N+](=O)[O-])cc4n3O)cc2)cc1 [Compound 22, (E)-N-[4-(1-Hydroxy-6-nitro-1H-benzoimidazol-2-yl)-phenyl]-3-(4-methoxy-phenyl)-acrylamide]
IC50 (LcrF): ≤ 10 µM
IC50 (SlyA): > 55.2 µM
antibacterial activity (in words) (Y. pseudotuberculosis): no measurable antibacterial activity
antibacterial activity (in words) (S. aureus): no measurable antibacterial activity
antibacterial activity (in words) (E. coli): no measurable antibacterial activity
non-specific DNA binding (effect on plasmid migration) [1]: non-DNA binding
intrinsic toxicity to uninfected macrophages [2]: non-cytotoxic

COc1ccc(/C=C/C(=O)Nc2ccc(-c3nc4ccc([N+](=O)[O-])cc4n3O)cc2)c(OC)c1 [Compound 24, (E)-3-(2,4-Dimethoxy-phenyl)-N-[4-(1-hydroxy-6-nitro-1H-benzoimidazol-2-yl)-phenyl]-acrylamide]
inhibitory activity in LcrF-DNA binding assay (in words) (LcrF): loss of activity

CC(C)c1ccc(/C=C/C(=O)Nc2ccc(-c3nc4ccc([N+](=O)[O-])cc4n3O)cc2)cc1 [Compound 25, (E)-N-[4-(1-Hydroxy-6-nitro-1H-benzoimidazol-2-yl)-phenyl]-3-(4-isopropyl-phenyl)-acrylamide]
inhibitory activity in LcrF-DNA binding assay (in words) (LcrF): loss of activity

O=C(/C=C/c1ccc(-n2cnnc2)cc1)Nc1ccc(-c2nc3ccc([N+](=O)[O-])cc3n2O)cc1 [Compound 27]
inhibitory activity in LcrF-DNA binding assay (in words) (LcrF): loss of activity

O=C(/C=C/c1ccc(-c2c[nH]cn2)cc1)Nc1ccc(-c2nc3ccc([N+](=O)[O-])cc3n2O)cc1 [Compound 28]
inhibitory activity in LcrF-DNA binding assay (in words) (LcrF): loss of activity

O=C(/C=C/c1ccc(F)cc1)Nc1ccc(-c2nc3ccc([N+](=O)[O-])cc3n2O)nc1 [Compound 31, (E)-3-(4-Fluoro-phenyl)-N-[6-(1-hydroxy-6-nitro-1H-benzoimidazol-2-yl)-pyridin-3-yl]-acrylamide]
inhibition of Y. pseudotuberculosis cytotoxicity in whole cell assay (in words) [3]: devoid of any measurable activity

Cc1cc2nc(-c3ccc(NC(=O)/C=C/c4ccc(F)cc4)cc3)n(O)c2cc1[N+](=O)[O-] [Compound 36, (E)-3-(4-Fluoro-phenyl)-N-[4-(1-hydroxy-5-methyl-6-nitro-1H-benzoimidazol-2-yl)-phenyl]-acrylamide]
IC50 (LcrF): ≤ 10 µM
IC50 (SlyA): > 52 µM
antibacterial activity (in words) (Y. pseudotuberculosis): no measurable antibacterial activity
antibacterial activity (in words) (S. aureus): no measurable antibacterial activity
antibacterial activity (in words) (E. coli): no measurable antibacterial activity
non-specific DNA binding (effect on plasmid migration) [1]: non-DNA binding
intrinsic toxicity to uninfected macrophages [2]: non-cytotoxic

CN(C)CCN(C)c1cc2nc(-c3ccc(NC(=O)/C=C/c4ccc(F)cc4)cc3)n(O)c2cc1[N+](=O)[O-] [Compound 40]
non-specific DNA binding (effect on plasmid migration) [1]: non-specific binding to DNA

CCOc1ccc(-c2nc3ccc(-c4nc5ccc(N6CCN(C)CC6)cc5[nH]4)cc3[nH]2)cc1 [Hoechst 33342, reference compound]
non-specific DNA binding (effect on plasmid migration) [1]: faint smear on the gel
